Read-outs that look alike come from different tables or passages of the source.
Assays:
[1] = test system: G-quadruplex of oligonucleotide GGGTTAGGGTTAGGGTTAGGG (3.5 repeats of the human telomereic motif); test: G-quadruplex stabilizing activity, fluorescence Tm (FAM+DABCYL oligonucleotide); type: binding
In short: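 FAM/DABCYL-labelled telomeric oligonucleotide (0.2 μM strand) in 10 mM sodium cacodylate pH 7.6 with 0.1 M LiCl (or NaCl) was annealed, then incubated ≥1 h at 20 °C with compound at 1 μM final. Samples were heated 20→80 °C, with excitation at 470 nm and emission at 515/588 nm. Tm is the 515 nm emission midpoint.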

A549 cells = test: Cytotoxic activity on human tumour line A549, neutral red, 96 hours; type: cell-based; details: read-out: Cytotox. A549 IC50
Method: The cytotoxic biological activity on human tumour lines is determined according to the following experimental protocol:
The human cell lines A549 are obtained from ATCC (American Type Culture Collection, Rockville, USA). The A549 cells are cultured in a layer in a culture flask in RPMI 1640 medium containing L-glutamine at 2 mM, penicillin 200 U/ml, streptomycin 200 μg/ml and supplemented with 10% heat-inactivated foetal calf serum. The KB cells are cultured in a layer in a culture flask in Dulbelco's medium containing L-glutamine at 2 mM, penicillin 200 U/ml, streptomycin 200 μg/ml and supplemented with 10% heat-inactivated foetal calf serum.
The cells at the exponential growth phase are trypsinized, washed in 1×PBS and are inoculated in 96-well microplates (Costar) in an amount of 4×10^4 cells/ml for A549 and of 1.5×10^4 cells/ml (0.2 ml/well) and then incubated for 96 hours in the presence of variable concentrations of product to be studied (10, 1, 0.1 and 0.01 μM, each point in quadruplicate). 16 hours before the end of the incubation, 0.02% final of neutral red is added to each well. At the end of the incubation, the cells are washed with 1×PBS and lysed with 1% sodium lauryl sulphate. The cellular incorporation of the dye, which reflects cellular growth, is evaluated by spectro-photometry at a wavelength of 540 nm for each sample with the aid of a Dynatech MR5000 reading apparatus.
For each compound concentration tested, the results are expressed as percentage of inhibition of cellular growth and calculated from the untreated control and the culture medium free of cells (blank) according to the following formula: (compound value−blank value/cell control value−blank value)×100.
The concentration of compound inducing a 50% inhibition of growth (IC50) is determined with the aid of a semilogarithmic graphical representation of the inhibition values obtained as a function of each of the compound concentrations tested.
A compound is considered to be active as cytotoxic agent if the concentration inhibiting the growth of the tumour cells tested by 50% is in particular less than 10 μM.

Compound | G4 delta Tm [1] | IC50 (A549 cells; Homo sapiens, A549, A549) | IC50 (A549 cells; A549)
Cc1cc(N(C)C)c2cc(Nc3nc(NCCCN(C)C)nc(Nc4ccc5nc(C)cc(N(C)C)c5c4)n3)ccc2n1 [Example 1, 2,4-bis(4-dimethylamino-2-methylquinolin-6-yl)amino-6-(3-dimethylaminopropyl)amino-[1,3,5]triazine] | 11.3 °C | 0.23 µM | 
Cc1cc(N)c2cc(Nc3nc(Nc4ccc5nc(C)cc(N)c5c4)nc(Nc4ccc5nc(C)cc(N)c5c4)n3)ccc2n1 [Example 2, 2,4,6-tris(4-amino-2-methylquinolin-6-yl)amino-[1,3,5]triazine] | 18 °C | 10 µM | 
Cc1cc(N)c2cc(Nc3nc(Nc4ccc5nc(C)cc(N(C)C)c5c4)nc(Nc4ccccc4Cl)n3)ccc2n1 [Example 3] | 5.5 °C | 6 µM | 
Cc1cc(N)c2cc(Nc3nc(Nc4ccc(N5CCNCC5)cc4)nc(Nc4ccc5nc(C)cc(N)c5c4)n3)ccc2n1 [Example 15] | 2.7 °C | 1.85 µM | 
Cc1cc(N)c2cc(Nc3nc(Nc4ccc5nc(C)cc(N)c5c4)nc(NC4CN5CCC4CC5)n3)ccc2n1 (centres unmarked) [Example 17, 2,4-bis(4-amino-2-methylquinolin-6-yl)amino-6-(quinuclidin-3-yl)amino-[1,3,5]triazine] | 17.1 °C | 2.73 µM | 
Cc1cc(N(C)C)c2cc(Nc3nc(Nc4ccncc4)nc(Nc4ccc5nc(C)cc(N(C)C)c5c4)n3)ccc2n1 [Example 18] | 2.4 °C | 2.86 µM | 
Cc1cc(N(C)C)c2cc(Nc3nc(Nc4ccc5nc(C)cc(N(C)C)c5c4)nc(C4CCN(C)CC4)n3)ccc2n1 [Example 19, 2,4-bis(4-dimethylamino-2-methylquinolin-6-yl)amino-6-(1-methylpiperidin-4-yl)-[1,3,5]triazine] | 3.5 °C | 0.3 µM | 
Cc1cc(N(C)C)c2cc(Nc3nc(Nc4ccc5nc(C)cc(N(C)C)c5c4)nc(N4CCN(C)CC4)n3)ccc2n1 [Example 20, 2,4-bis(4-dimethylamino-2-methylquinolin-6-yl)amino-6-(4-methylpiperazin-1-yl)-[1,3,5]triazine] | 6.4 °C | 0.35 µM | 
Cc1cc(N(C)C)c2cc(Nc3nc(NCc4ccncc4)nc(Nc4ccc5nc(C)cc(N(C)C)c5c4)n3)ccc2n1 [Example 27, 2,4-bis(4-dimethylamino-2-methylquinolin-6-yl)amino-6-(pyridin-4-yl)methylamino-[1,3,5]triazine] | 11.0 °C |  | 1 µM
CCN(CCNc1nc(Nc2ccc3nc(C)cc(N(C)C)c3c2)nc(Nc2ccc3nc(C)cc(N(C)C)c3c2)n1)c1cccc(C)c1 [Example 28] | 10.6 °C | 1.5 µM | 
Cc1cc(N)c2cc(Nc3nc(Nc4ccc5nc(C)cc(N)c5c4)nc(NC4CCN(Cc5ccccc5)C4)n3)ccc2n1 (centres unmarked) [Example 41] | 19 °C | 9.9 µM | 
Cc1cc(N)c2cc(Nc3nc(Nc4ccc5nc(C)cc(N)c5c4)nc(N4CCN(C5CCCC5)CC4)n3)ccc2n1 [Example 43] | 18 °C | 10 µM | 
Cc1cc(N)c2cc(Nc3nc(NCc4ccc([N+](C)(C)C)cc4)nc(Nc4ccc5nc(C)cc(N)c5c4)n3)ccc2n1 [Example 60] | 6 °C | 5.7 µM | 
Cc1cc(N)c2cc(Nc3nc(Nc4ccc5nc(C)cc(N)c5c4)nc(N4CCN(C(=O)c5ccco5)CC4)n3)ccc2n1 [Example 68] | 8 °C | 11.5 µM | 
Cc1cc(N)c2cc(Nc3nc(Nc4ccc5nc(C)cc(N)c5c4)nc(N4CCN(C5CCCCCCC5)CC4)n3)ccc2n1 [Example 77] | 12.5 °C | 5.6 µM | 
Cc1cc(N)c2cc(Nc3nc(Nc4ccc5nc(C)cc(N)c5c4)nc(N4CCCC4c4cccnc4)n3)ccc2n1 (centres unmarked) [Example 86] | 6 °C | 18.9 µM | 

Compound | G4 delta Tm [1] | IC50 (A549 cells; Homo sapiens, A549, A549) | IC50 (A549 cells; A549)
Cc1cc(N)c2cc(Nc3nc(Nc4ccc5nc(C)cc(N)c5c4)nc(N(Cc4ccccc4)C4CN5CCC4CC5)n3)ccc2n1 (centres unmarked) [Example 92] | 3.5 °C | 7.8 µM | 
Cc1cc(N)c2cc(Nc3nc(Nc4ccc5nc(C)cc(N)c5c4)nc(NC4CCN(Cc5ccccc5)CC4)n3)ccc2n1 [Example 93] | 8 °C | 9.3 µM | 
Cc1cc(N)c2cc(Nc3nc(Nc4ccc5nc(C)cc(N)c5c4)nc(Oc4ccccc4Cl)n3)ccc2n1 [Example 103] | 7 °C | 11.3 µM | 
COc1cccc(Oc2nc(Nc3ccc4nc(C)cc(N)c4c3)nc(Nc3ccc4nc(C)cc(N)c4c3)n2)c1 [Example 104] | 4.5 °C | 11.4 µM | 
Cc1cc(N)c2cc(Nc3nc(Nc4ccc5nc(C)cc(N)c5c4)nc(OCCN(C)Cc4ccccc4)n3)ccc2n1 [Example 105] | 12 °C | 11.6 µM | 
Cc1cc(N(C)C)c2cc(Nc3nc(Nc4ccc5nc(C)cc(N(C)C)c5c4)nc(Oc4ccncc4)n3)ccc2n1 [Example 115, 2,4-bis(4-dimethylamino-2-methylquinolin-6-yl)amino-6-(pyridin-4-yl)oxy-[1,3,5]triazine] | 13 °C | 1.6 µM | 
Cc1cc(N)c2cc(Nc3nc(Nc4ccc5nc(C)cc(N)c5c4)nc(Sc4ccccc4Cl)n3)ccc2n1 [Example 118] | 3.5 °C | 13.7 µM | 
Cc1cc(N)c2cc(Nc3nc(Nc4ccc5nc(C)cc(N)c5c4)nc(Sc4ccccn4)n3)ccc2n1 [Example 120] | 11.5 °C | 17.8 µM | 
COc1ccc(CSc2nc(Nc3ccc4nc(C)cc(N)c4c3)nc(Nc3ccc4nc(C)cc(N)c4c3)n2)cc1 [Example 124] | 3 °C | 6.2 µM | 
Cc1cc(N)c2cc(Nc3nc(Nc4ccc5nc(C)cc(N)c5c4)nc(Sc4ncccn4)n3)ccc2n1 [Example 126] | 19 °C | 11.4 µM | 
Cc1cc(C)nc(Sc2nc(Nc3ccc4nc(C)cc(N)c4c3)nc(Nc3ccc4nc(C)cc(N)c4c3)n2)n1 [Example 127] | 14 °C | 15.9 µM | 
Cc1cc(N)c2cc(Nc3nc(Nc4ccc5nc(C)cc(N)c5c4)nc(Sc4ccc5ccccc5n4)n3)ccc2n1 [Example 128, 2,4-bis(4-amino-2-methylquinolin-6-yl)amino-6-(quinolin-2-yl)thio-[1,3,5]triazine] | 15 °C | 2.86 µM | 
Cc1cc(N(C)C)c2cc(Nc3nc(Nc4ccc5nc(C)cc(N(C)C)c5c4)nc(N4CCCN(C)CC4)n3)ccc2n1 [Example 135, 2,4-bis(4-dimethylamino-2-methylquinolin-6-yl)amino-6-(1-methylhomopiperazin-4-yl)-[1,3,5]triazine] | 20 °C | 0.07 µM | 
Cc1cc(N(C)C)c2cc(Nc3nc(Nc4ccc5nc(C)cc(N(C)C)c5c4)nc(N4CCN(CCCN(C)C)CC4)n3)ccc2n1 [Example 136, 2,4-bis(4-dimethylamino-2-methylquinolin-6-yl)amino-6-[1-(3-dimethylaminopropyl)piperazin-4-yl]-[1,3,5]triazine] | 20.5 °C | 0.026 µM | 
CCCN(CCC)CCN1CCN(c2nc(Nc3ccc4nc(C)cc(N(C)C)c4c3)nc(Nc3ccc4nc(C)cc(N(C)C)c4c3)n2)CC1 [Example 137, 2,4-bis(4-dimethylamino-2-methylquinolin-6-yl)amino-6-[1-(2-dipropylaminoethyl)piperazin-4-yl]-[1,3,5]triazine] | 16 °C | 0.15 µM | 

— patent US6887873B2, “Triazine derivatives and their application as antitelomerase agents” (Aventis Pharma S.A., priority 2001, dated 2005)
